Results as given in PMC7272617 (Scientific Reports, 2020).
Values after ≈ are worked out from the molar mass of the structure shown. Where a SMILES comes first, the peptide text is derived from it. Bridges are numbered along the chain shown (N, C = ends). [ ]: non-standard residue; d: D form. The star is where a group is joined. X1 = CC[C@H](C)CCCCC(=O)*; Dab = NCC[C@H](N)C(=O)O

How the values were obtained:
P. aeruginosa ATCC 27853 = assay: Membrane permeability (PI) and depolarization (BOX), flow cytometry; format: cell-based, Pseudomonas aeruginosa; details: 1 × MIC, 30 min; for permeabilized and depolarized cells (BOX+PI+): 37 °C, triplicate
Method: Their outer and inner membranes provide important protection for Gram-negative bacteria. To assess membrane permeability and depolarization induced by PA-13, the DNA intercalating dyes propidium iodide (PI) and bis-(1,3-dibutylbarbituric acid) trimethine oxonol (BOX) were used as previously described. The fluorescence conferred by these dyes is generally associated with the loss of membrane integrity and potential, respectively.
Briefly, P. aeruginosa ATCC 27853 was cultured to mid-logarithmic phase and harvested by centrifugation at 2,000 × g for 5 min. The bacterial cells were washed thrice with PBS and diluted to 10^7 CFU/ml in 50 ml of PBS. […] Bacterial pellets were harvested and washed with PBS by centrifugation at 10,000 × g for 10 min. […] Untreated bacterial cells (no peptide) served as a negative control, whereas bacterial cells treated with melittin served as a positive control. Data was recorded using a flow cytometer (CytoFlex, Beckman Coulter) at a laser excitation wavelength of 488 nm. Forward scatter (FS), side scatter (SS), green fluorescence (530/30 nm) from BOX and red fluorescence (585/42 nm) emitted by PI were collected using logarithmic scales. 25,000 cells, defined according to their scatter parameters, were counted in each sample. The experiments were performed in triplicate and the data was analyzed using Kaluza software.

[1] = tested on: Staphylococcus epidermidis ATCC 12228; details: S. epidermidis ATCC 12228; MHB, 37 °C, 24 h
[2] = tested on: Listeria monocytogenes 10403 s; details: Listeria monocytogenes 10403 s; MHB, 37 °C, 24 h
[3] = tested on: Enterococcus faecalis ATCC 29212; details: Enterococcus faecalis ATCC 29212; MHB, 37 °C, 24 h
[4] = tested on: Acinetobacter baumannii MT strain; details: Acinetobacter baumannii MT strain; MHB, 37 °C, 24 h
[5] = tested on: Salmonella Typhimurium ATCC 13311; details: Salmonella Typhimurium ATCC 13311; MHB, 37 °C, 24 h
[6] = tested on: Bacillus cereus ATCC 11778; details: Bacillus cereus ATCC 11778; MHB, 37 °C, 24 h
[7] = tested on: all Gram-positive strains; assay: Mean MIC and therapeutic index, Gram-positive strains; format: cell-based; details: 5 Gram-positive strains of Table 3
Method: (§1) The antimicrobial activity of the peptides was determined against both Gram-positive and -negative bacteria including 14 MDR P. aeruginosa clinical isolates from Bhumibol Adulyadej Hospital (Tables 1 and 3). The minimal inhibitory concentration (MIC) of each peptide was measured according to a modification of the National Committee for Clinical Laboratory Standards (NCCLS) broth microdilution method as previously described. Briefly, bacterial cells in mid-log phase were cultured in Müeller-Hinton broth (MHB) and then diluted to 10^7 CFU/ml. […] Plates were incubated at 37 °C for 24 h, and MICs were defined as the lowest concentration of peptide that prevented visible turbidity. Cultures without peptides and uninoculated MHB were employed as positive and negative controls, respectively. Colony count assays were performed to determine the minimal bactericidal concentrations (MBCs) for determination of time-killing activity. As previously described, a 50 μl aliquot from each non-turbid well identified in the MIC determination experiment was spread on agar plates.
(§2) To further evaluate the global activity of these peptides, the geometric mean (GM) MIC and the therapeutic index (TI) of each were calculated (Table 3). The TI, a widely used parameter to evaluate cell selectivity and specificity of antimicrobial agents, was calculated as the ratio of MHC (the concentration that causes 10% hemolysis) to the geometric mean of MICs[22]. Higher TIs indicated greater cell selectivity and specificity.

[8] = tested on: L929 mouse fibroblast cells; assay: Cytotoxicity, MTT viability assay; details: 250 µg/ml, 24 h, triplicate
[9] = tested on: Escherichia coli O157:H7 MT strain; details: E. coli O157:H7 MT strain; MHB, 37 °C, 24 h
[10] = tested on: all Gram-negative strains; assay: Mean MIC and therapeutic index, Gram-negative strains; format: cell-based; details: 7 Gram-negative strains of Table 3
Method: as §1, §2

[11] = tested on: Vibrio cholera O1 Inaba DMST 16261; details: MHB, 37 °C, 24 h
[12] = tested on: Pseudomonas aeruginosa ATCC 27853; details: P. aeruginosa ATCC 27853; MHB, 10^7 CFU/ml, 37 °C, 24 h, no visible turbidity
[13] = tested on: Shigella sonnei ATCC 11060; details: MHB, 37 °C, 24 h
[14] = tested on: human red blood cells (hRBCs); assay: Hemolytic activity, hemoglobin release; details: 2% hRBC, 1 h, 37 °C
Method: Hemolytic activity of the peptides was assayed against human red blood cells (hRBCs) by measuring the amount of hemoglobin released after treatment. The hRBCs, freshly collected from a healthy volunteer in polycarbonate tubes containing heparin, were washed three times in sterile phosphate buffered saline (PBS) and centrifuged at 2,000 × g for 5 min or until the supernatant became clear. […] After 1 h of incubation at 37 °C, intact hRBCs were pelleted by centrifugation at 2,000 × g for 10 min. The supernatant was transferred to a new 96-well plate and the release of hemoglobin was monitored by measurement of absorbance at 405 nm using a Multiskan FC microplate reader. The hRBCs in PBS only (ODBlank) and in 0.1% Triton X-100 (ODTriton X-100) were employed as negative (0% hemolysis) and positive (100% hemolysis) controls, respectively. The percentage of hemolysis was calculated according to the following equation: %Hemolysis=(ODSample−ABlank)/(ODTritonX−100−ODBlank)×100

[15] = tested on: MDR P. aeruginosa clinical isolate No.13; details: MDR P. aeruginosa clinical isolate No.13
[16] = tested on: MDR P. aeruginosa clinical isolate No.4; details: MDR P. aeruginosa clinical isolate No.4
[17] = tested on: MDR P. aeruginosa clinical isolate No.7; details: MDR P. aeruginosa clinical isolate No.7
[18] = tested on: MDR P. aeruginosa clinical isolate No.8; details: MDR P. aeruginosa clinical isolate No.8
[19] = tested on: MDR P. aeruginosa clinical isolate No.2; details: MDR P. aeruginosa clinical isolate No.2
[20] = tested on: MDR P. aeruginosa clinical isolate No.3; details: MDR P. aeruginosa clinical isolate No.3
[21] = tested on: MDR P. aeruginosa clinical isolate No.5; details: MDR P. aeruginosa clinical isolate No.5
[22] = tested on: MDR P. aeruginosa clinical isolate No.10; details: MDR P. aeruginosa clinical isolate No.10
[23] = tested on: MDR P. aeruginosa clinical isolate No.9; details: MDR P. aeruginosa clinical isolate No.9
[24] = tested on: MDR P. aeruginosa clinical isolate No.11; details: MDR P. aeruginosa clinical isolate No.11
[25] = tested on: MDR P. aeruginosa clinical isolate No.6; details: MDR P. aeruginosa clinical isolate No.6
[26] = tested on: MDR P. aeruginosa clinical isolate No.14; details: MDR P. aeruginosa clinical isolate No.14
[27] = tested on: MDR P. aeruginosa clinical isolate No.12
[28] = tested on: MDR P. aeruginosa clinical isolate No.1

Compound: CC[C@H](C)[C@H](NC(=O)CN)C(=O)NCC(=O)N[C@@H](C)C(=O)N[C@H](C(=O)N[C@@H](CC(C)C)C(=O)N[C@@H](CCCCN)C(=O)N[C@H](C(=O)N[C@@H](CC(C)C)C(=O)N[C@H](C(=O)N[C@H](C(=O)NCC(=O)N[C@@H](CC(C)C)C(=O)N1CCC[C@H]1C(=O)N[C@@H](C)C(=O)N[C@@H](CC(C)C)C(=O)N[C@H](C(=O)N[C@@H](CO)C(=O)N[C@@H](Cc1c[nH]c2ccccc12)C(=O)N[C@H](C(=O)N[C@@H](CCCCN)C(=O)N[C@@H](CCCNC(=N)N)C(=O)N[C@@H](CCCCN)C(=O)N[C@@H](CCCNC(=N)N)C(=O)N[C@@H](CCC(N)=O)C(=O)N[C@@H](CCC(N)=O)C(N)=O)[C@@H](C)CC)[C@@H](C)CC)[C@@H](C)O)[C@@H](C)O)C(C)C)C(C)C [Melittin, reference compound]
- cell population BOX+PI- (P. aeruginosa ATCC 27853): 2.70%
- cell population BOX-PI+ (P. aeruginosa ATCC 27853): 0.12%
- cell population BOX-PI- (P. aeruginosa ATCC 27853): 3.14%
- permeabilized and depolarized cells (BOX+PI+) (P. aeruginosa ATCC 27853): 94.04%
- permeabilized and depolarized cells (BOX+PI+) (P. aeruginosa ATCC 27853; listed as melittin): 94.04 ± 3.25%
- MIC [1]: 3.91 µg/mL (≈ 1.37 µM)
- MIC [2]: 3.91 µg/mL (≈ 1.37 µM)
- MIC [3]: 1.95 µg/mL (≈ 0.685 µM)
- MIC [4]: 7.81 µg/mL (≈ 2.74 µM)
- MIC [5]: 3.91 µg/mL (≈ 1.37 µM)
- MIC [6]: 3.91 µg/mL (≈ 1.37 µM)
- GM (Gr.+ strains): geometric mean of MIC values from all Gram-positive strains [7]: 3.52 µg/mL
- L929 cell survival at the maximum concentration [8]: less than 1%
- MIC [9]: 7.81 µg/mL (≈ 2.74 µM)
- GM (Gr.− strains): geometric mean of MIC values from all Gram-negative strains [10]: 10.60 µg/mL
- MIC [11]: 3.91 µg/mL (≈ 1.37 µM)
- MIC [12]: 15.63 µg/mL (≈ 5.49 µM)
- MIC [13]: 3.91 µg/mL (≈ 1.37 µM)
- concentration at which hemolysis was complete (100%) [14]: 1950 ng/mL

Compound: Gentamycin
- MIC [15]: >125 µg/mL
- MIC [16]: >125 µg/mL
- MIC [17]: 125 µg/mL
- MIC [18]: >125 µg/mL
- MIC [19]: >125 µg/mL
- MIC [20]: >125 µg/mL
- MIC [21]: 125 µg/mL
- MIC [22]: >125 µg/mL
- MIC [23]: >125 µg/mL
- MIC [24]: >125 µg/mL
- MIC [12]: ≤0.98 µg/mL
- MIC [25]: >125 µg/mL
- MIC [26]: >125 µg/mL
- MIC [27]: 125 µg/mL
- MIC [28]: >125 µg/mL

Compound: CC[C@H](C)CCCCC(=O)N[C@@H](CCN)C(=O)N[C@H](C(=O)N[C@@H](CCN)C(=O)N[C@H]1CCNC(=O)[C@H]([C@@H](C)O)NC(=O)[C@H](CCN)NC(=O)[C@H](CCN)NC(=O)[C@H](CC(C)C)NC(=O)[C@@H](CC(C)C)NC(=O)[C@H](CCN)NC1=O)[C@@H](C)O [Colistin] (X1-[Dab]T[Dab][Dab][Dab][dL]L[Dab][Dab]T; lactam 4-C (inferred); N-terminus assumed)
- MIC [15]: 0.98 µg/mL (≈ 0.838 µM)
- MIC [16]: 1.95 µg/mL (≈ 1.67 µM)
- MIC [17]: 0.98 µg/mL (≈ 0.838 µM)
- MIC [18]: 0.98 µg/mL (≈ 0.838 µM)
- MIC [19]: 1.95 µg/mL (≈ 1.67 µM)
- MIC [20]: 1.95 µg/mL (≈ 1.67 µM)
- MIC [21]: 1.95 µg/mL (≈ 1.67 µM)
- MIC [22]: 1.95 µg/mL (≈ 1.67 µM)
- MIC [23]: 0.98 µg/mL (≈ 0.838 µM)
- MIC [24]: 1.95 µg/mL (≈ 1.67 µM)
- MIC [12]: ≤0.98 µg/mL
- MIC [25]: 1.95 µg/mL (≈ 1.67 µM)
- MIC [26]: 0.98 µg/mL (≈ 0.838 µM)
- MIC [27]: 1.95 µg/mL (≈ 1.67 µM)
- MIC [28]: 1.95 µg/mL (≈ 1.67 µM)
